Reference: PubChem BioAssay (NCI)
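Briefly, cells in 96-well plates were exposed to five compound concentrations for 48 h, and endpoints were estimated by linear interpolation. TGI denotes the concentration required for complete inhibition of growth.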

Columns and labels:
Test in all cases: DTP human tumour cell line panel, 48 h
786-0 renal = system: 786-0 renal
A498 renal = system: A498 renal
A549 NSCLC = system: A549 NSCLC
ACHN renal = system: ACHN renal
BT-549 breast = system: BT-549 breast
CAKI-1 renal = system: CAKI-1 renal
CCRF-CEM leukemia = system: CCRF-CEM leukemia
COLO 205 colon = system: COLO 205 colon
DU-145 prostate = system: DU-145 prostate
EKVX NSCLC = system: EKVX NSCLC
HCC-2998 colon = system: HCC-2998 colon
HCT-116 colon = system: HCT-116 colon
HCT-15 colon = system: HCT-15 colon
HL-60(TB) leukemia = system: HL-60(TB) leukemia
HOP-62 NSCLC = system: HOP-62 NSCLC
HOP-92 NSCLC = system: HOP-92 NSCLC
HS 578T breast = system: HS 578T breast
HT29 colon = system: HT29 colon
IGROV1 ovarian = system: IGROV1 ovarian
K-562 leukemia = system: K-562 leukemia
KM12 colon = system: KM12 colon
LOX IMVI melanoma = system: LOX IMVI melanoma
M14 melanoma = system: M14 melanoma
MALME-3M melanoma = system: MALME-3M melanoma
MCF7 breast = system: MCF7 breast
MDA-MB-231 breast = system: MDA-MB-231 breast
MDA-MB-435 = system: MDA-MB-435
MOLT-4 leukemia = system: MOLT-4 leukemia
NCI-H226 lung = system: NCI-H226 lung
NCI-H23 lung = system: NCI-H23 lung
NCI-H460 lung = system: NCI-H460 lung
NCI-H522 lung = system: NCI-H522 lung
NCI/ADR-RES ovarian = system: NCI/ADR-RES ovarian
OVCAR-3 ovarian = system: OVCAR-3 ovarian
OVCAR-4 ovarian = system: OVCAR-4 ovarian
OVCAR-5 ovarian = system: OVCAR-5 ovarian
OVCAR-8 ovarian = system: OVCAR-8 ovarian
PC-3 prostate = system: PC-3 prostate
RPMI-8226 leukemia = system: RPMI-8226 leukemia
RXF 393 renal = system: RXF 393 renal
SF-268 CNS = system: SF-268 CNS
SF-295 CNS = system: SF-295 CNS
SF-539 CNS = system: SF-539 CNS
SK-MEL-2 melanoma = system: SK-MEL-2 melanoma
SK-MEL-5 melanoma = system: SK-MEL-5 melanoma
SK-OV-3 ovarian = system: SK-OV-3 ovarian
SN12C renal = system: SN12C renal
SNB-19 CNS = system: SNB-19 CNS
SNB-75 CNS = system: SNB-75 CNS
SR leukemia = system: SR leukemia
SW-620 colon = system: SW-620 colon
T-47D breast = system: T-47D breast
TK-10 renal = system: TK-10 renal
U251 CNS = system: U251 CNS
UACC-257 melanoma = system: UACC-257 melanoma
UACC-62 melanoma = system: UACC-62 melanoma
UO-31 renal = system: UO-31 renal

Measured: TGI

O=[N+]([O-])c1ccc(C2Nn3c(nnc3-c3cccc([N+](=O)[O-])c3)S2)cc1 (configuration not stated)
> 100 µM: all assays above
